In patent publication US6506876B1, “LTA4 hydrolase inhibitor pharmaceutical compositions and methods of use” (G.D. Searle & Co., priority 1994, dated 2003):
pIC50: −log10 of the molar value. Structures can show the parent of a compound that is named as a salt. Where two headings read alike, the source gives them in different places.

Legend:
[1] = tested on: LTB4 production in mouse blood (LTA4 hydrolase); test: Ex vivo LTB4 production by calcium ionophore stimulated mouse blood after oral dosing; assay type: in vivo; settings: mouse, oral gavage, read-out: Murine Ex Vivo LTB4 Inhibition % I LTB4; for inhibition in vivo at 10 mg/kg: 1 hour after administration of 10 mg/kg; for inhibition in vivo at 50 mg/kg: 1 hour after administration of 50 mg/kg (*)
Procedure: Ex Vivo LTB4 and Thromboxane Production by Calcium Ionophore Stimulated Mouse Blood for LTA4 Hydrolase Inhibitor Activity
Leukotriene A4 hydrolase inhibitor compounds of the present invention were diluted to a predetermined concentration in phosphate buffered saline containing 2% DMSO and 1% Tween 80. The compounds were administered by oral gavage to adult male outbred mice weighing approximately 20-30 gm at a dose of 10 mg/kg body weight. (Compounds given at a dose of 50 mg/kg body weight are designtated in following Table by the symbol, *.) Sixty (60) minutes after administration of an LTA4 inhibitor compound of the invention, blood was collected (into heparin-containing tubes) from the retroorbital sinus. […] The mixture was incubated for 10 minutes at 37° C. in a humidified incubator. The reaction was terminated by centrifugation (833 g, 10 minutes at 4° C.). Supernatants were analyzed for LTB4 and thromboxane by commercially available enzyme-linked immunoassays (Caymen Chemical Co., Ann Arbor, Mich.] in accordance with the manufacturer's instructions. The percent inhibition was determined by comparison to animals treated identically except that the solution admininstered by oral gavage was devoid of inhibitor compound.

[2] = tested on: LTB4 production in human whole blood (LTA4 hydrolase); test: LTB4 production by calcium ionophore stimulated human blood; assay type: cell-based; settings: read-out: Inhibition of Calcium Ionophore-Induced LTB4 Production in Human Blood IC50 HWB
Procedure: LTB4 and Thromboxane Production by Calcium Ionophore Stimulated Human Blood for LTA4 Hydrolase Inhibitor Activity
One or more concentrations of the leukotriene A4 hydrolase inhibitor compounds being tested were prepared (diluted in DMSO) and 2 μl added and gently mixed with the diluted whole blood. After incubating for 15 minutes at 37° C. in a humidified incubator, calcium ionophore A23187 (Sigma Chemical Co., St. Louis, Mo.) was added to a final concentration of 20 mcg/ml and the incubation continued under the same conditions for an additional 10 minutes to allow LTB4 formation. The reaction was terminated by centrifugation (833 g, 10 minutes at 4° C.) and supernatant were analyzed for LTB4 and thromboxane by commercially available enzyme-linked immunoassays (Caymen Chemical Co., Ann Arbor, Mich.) according to the manufacturer's instructions. The IC50 of each test compound was determined from the amount of inhibition of LTB4 production as compared to an essentially identical assay in which no inhibitor compound was present.

[3] = target: T1, recombinant human LTA4 hydrolase (rhLTA4H) (Homo sapiens, UniProt P09960); test: Recombinant human LTA4 hydrolase assay for LTA4 hydrolase inhibitor activity
T1 sequence (P09960 1-611): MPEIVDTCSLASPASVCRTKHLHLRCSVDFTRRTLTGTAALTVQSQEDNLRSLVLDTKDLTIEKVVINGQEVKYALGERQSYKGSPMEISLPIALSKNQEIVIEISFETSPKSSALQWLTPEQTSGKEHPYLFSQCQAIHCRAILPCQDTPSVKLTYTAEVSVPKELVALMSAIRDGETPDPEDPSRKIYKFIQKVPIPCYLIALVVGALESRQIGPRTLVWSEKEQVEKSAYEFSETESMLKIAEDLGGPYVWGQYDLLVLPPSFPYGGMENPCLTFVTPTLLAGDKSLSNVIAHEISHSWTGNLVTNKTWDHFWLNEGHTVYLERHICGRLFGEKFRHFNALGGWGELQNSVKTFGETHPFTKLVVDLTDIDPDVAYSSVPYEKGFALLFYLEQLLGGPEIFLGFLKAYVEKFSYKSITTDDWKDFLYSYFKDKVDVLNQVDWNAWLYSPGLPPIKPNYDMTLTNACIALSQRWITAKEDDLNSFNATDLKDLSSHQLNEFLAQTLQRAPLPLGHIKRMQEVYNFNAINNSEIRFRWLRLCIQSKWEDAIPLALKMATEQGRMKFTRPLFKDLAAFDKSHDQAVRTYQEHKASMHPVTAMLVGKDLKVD

[4] = Homo sapiens, human whole blood, A23187
[5] = Recombinant Human LTA4 Hydrolase Assay IC50 LTA4H, recombinant hLTA4H

SMILES	inhibition in vivo at 10 mg/kg [1] [%]	pIC50 [2, 4]	pIC50 [3, 5]	further results
Clc1ccc(Cc2ccc(OCCN3CCCC3)cc2)cc1 [Example 140]	15	6.00		
O=C(CCNCCCOc1ccc(Cc2ccccc2)cc1)N1CCOCC1 [Example 424]		6.24	6.43	
NC(=O)NC1CCN(CCOc2ccc(Cc3ccccc3)cc2)CC1 [Example 456]	72	6.36		
CC(=O)NC1CCN(CCOc2ccc(Cc3ccccc3)cc2)C1 (centres unmarked) [Example 256]	23	6.38		
CCOC(=O)C1C2CN(CCOc3ccc(Cc4ccccc4)cc3)CC21 (centres unmarked) [Example 325]			4.70	pIC50 ([2]; human whole blood, A23187): 5.62
CCOC(=O)CC1CCN(CCOc2ccc(Oc3ccccc3)cc2)CC1 [Example 300]			5.30	pIC50 ([2]; human whole blood, A23187): 5.60
C(=C\c1ccc(OCCN2CCCC2)cc1)/c1ccccc1 [Example 46, 1-[2-[4-(2-phenylethenyl)phenoxy]ethyl]pyrrolidine]	13	5.82		
COC(=O)C1CCCN1CCOc1ccc(Cc2ccccc2)cc1 (centres unmarked) [Example 237]			6.35	pIC50 ([2]; Homo sapiens): 5.73
c1ccc(Cc2ccc3c(c2)CC(Cn2cnc4ccncc42)O3)cc1 (centres unmarked) [358 A]			5.81	pIC50 ([2]; human whole blood, A23187): 6.82
Fc1cc(OCCN2CCCC2)ccc1Cc1ccccc1 [Example 116]	18	5.96		
Clc1cc(Cc2ccccc2)ccc1OCCN1CCCC1 [Example 113]		5.70		
CCOC(=O)CNCCCOc1ccc(Cc2ccccc2)cc1 [Example 264]		5.96		inhibition in vivo at 50 mg/kg [1]: 87%
CCOC(=O)CNCCCCCOc1ccc(Cc2ccccc2)cc1 [Example 321]	87	6.38		
COc1cccc(Cc2ccc(OCCN3CCCC3)cc2)c1 [Example 127]		5.61		
NC(=O)N1CCN(CCOc2ccc(Cc3ccccc3)cc2)CC1 [Example 459]	44	5.62		
CCOC(=O)CNCCCCOc1ccc(Cc2ccccc2)cc1 [Example 320]	85	6.45		
O=C(CCl)NC1CCN(CCOc2ccc(Cc3ccccc3)cc2)C1 (centres unmarked) [Example 454]			6.85	pIC50 ([2]; human whole blood, A23187): 6.21
NC1CCN(CCOc2ccc(Cc3ccccc3)cc2)C1 (centres unmarked) [Example 452]	57	6.54		
O=C(O)C1C2CN(CCOc3ccc(Cc4ccccc4)cc3)CC21 (centres unmarked) [Example 435]			6.65	pIC50 ([2]; human whole blood, A23187): 7.07
Fc1cc(Cc2ccccc2)ccc1OCCN1CCCC1 [Example 115]		6.72		
c1ccc(Cc2ccc(OCCN3CCCCCC3)cc2)cc1 [Example 397]				pIC50 ([3]; read-out: Recombinant Human LTA4 Hydrolase Assay IC50 LTA4H): 7.43; pIC50 ([2]; Homo sapiens): 6.92
O=C(O)C1CCN(CCOc2ccc(Cc3cccs3)cc2)CC1 [Example 437]			6.95	pIC50 ([2]; human whole blood, A23187): 6.16
NC(=O)C1CCN(CCOc2ccc(Cc3cccc(F)c3)cc2)CC1 [Example 233]	98		6.43	
C[C@@H]1C[C@H](C(N)=O)C[C@H](C)N1CCOc1ccc(Cc2ccccc2)cc1 [Example 316]	85		7.30	
COC(=O)[C@@H]1CCCN1CCOc1ccc(Cc2ccccc2)cc1 [Example 225, Methyl 1-[2-[4-(Phenylmethyl)phenoxy]ethyl]-2S-pyrrolidine-2-carboxylate, monohydrochloride, hydrate]				pIC50 ([2]; Homo sapiens): 5.73
COC(=O)CCN(C)CCCOc1ccc(Cc2ccccc2)cc1 [Example 413]	86		7.37	
Fc1ccc(Oc2ccc(OCCn3cccc4ncnc3-4)cc2)cc1 [354 C]	6		6.32	

SMILES	inhibition in vivo at 10 mg/kg [1] [%]	pIC50 [2, 4]	pIC50 [3, 5]	further results
c1ccc(Cc2ccc(OCCN3CCCC3)cc2)nc1 [Example 138]	21		6.38	
OC1CCN(CCOc2ccc(Cc3ccccc3)cc2)CC1 [Example 247]	70		7.00	
c1ccc(Cc2ccc(OCCCn3cnc4cnccc43)cc2)cc1 [356 B]	33		6.77	
CNC(=O)C1CCN(CC2Cc3cc(Cc4ccccc4)ccc3O2)CC1 (centres unmarked) [Example 295]	80		6.36	
NC(=O)C1(O)CCN(CCOc2ccc(Cc3ccccc3)cc2)CC1 [Example 427]	68		6.46	
NC1CCN(CCOc2ccc(Cc3ccccc3)cc2)CC1 [Example 455]	67		7.96	
Oc1ccc(Cc2ccc(OCCN3CCCC3)cc2)cc1 [Example 137]	38		7.52	
Fc1ccc(Cc2ccc(OCCN3CCCC3)cc2)cc1 [Example 139]	9		6.96	
O=c1[nH]c(C2CCCN(CCOc3ccc(Cc4ccccc4)cc3)C2)no1 (centres unmarked) [Example 448]		6.08	6.09	
Fc1ccc(Oc2ccc(OCCn3cnc4ccncc43)cc2)cc1 [355 A]	44		5.86	
c1ccc(Oc2ccc(OCCCn3cccc4ncnc3-4)cc2)cc1 [350 C]	35		6.21	
c1ccc(Cc2cnc(OCCN3CCCC3)s2)cc1 [Example 76]		5.46		
COC(=O)C1CN(CCCOc2ccc(Cc3ccccc3)cc2)CCC1=O (centres unmarked) [Example 262]	52		6.66	
CC(C)(C)OC(=O)C1CCN(CCCOc2ccc(Cc3ccccc3)cc2)CC1 [Example 263]	60		5.35	
COC(=O)CCNCCCOc1ccc(Cc2ccccc2)cc1 [Example 267]			6.77	inhibition in vivo at 50 mg/kg [1]: 100%
CCOC(=O)C1CCN(CC2Cc3cc(Cc4ccccc4)ccc3O2)CC1 (centres unmarked) [Example 282]	57		5.43	
c1ccc(Cc2ccc(OCCn3cnc4ccccc43)cc2)cc1 [Example 339]	47		5.70	
CCOC(=O)C1CCCN(CCCOc2ccc(Cc3ccccc3)cc2)C1 (centres unmarked) [Example 269]	50		5.56	
c1ccc(Cc2ccc(OCCCn3cnc4ccncc43)cc2)cc1 [356 A]	14		6.46	
NC(=O)C1CCN(CCOc2ccc(Cc3ccsc3)cc2)CC1 [Example 230]	53		6.41	
c1ccc(COc2ccc(OCCn3ccc4ncnc-4c3)cc2)cc1 [347 C]	52		8.30	
Fc1ccc(Oc2ccc(OCCn3ccc4ncnc-4c3)cc2)cc1 [355 C]	48		7.55	
NNC(=O)C1CCN(CCOc2ccc(Cc3ccccc3)cc2)CC1 [Example 419]	90		7.33	
O=C(Nc1ccccc1)OC[C@@H]1CCCN1CCOc1ccc(Cc2ccccc2)cc1 [Example 428]	2		6.30	
O=C(NC1CCN(CCOc2ccc(Cc3ccccc3)cc2)CC1)c1cc2ccccc2o1 [Example 248]	56		6.70	
NC(=O)C1CCN(CCOc2ccc(Cc3cccs3)cc2)CC1 [Example 229]	70		6.62	
